The results in this text go back to ChEMBL document CHEMBL1139796, “Novel anti-tuberculosis agents from MCR libraries” (Bioorg Med Chem Lett, 2007).

In this experiment the test system is Mycobacterium tuberculosis. Put plainly: Antimycobacterial activity against Mycobacterium tuberculosis at 12.5 ug/ml. The format is functional. The note with it: read-out: GI.
As for `C=CCNC(=O)C1(N(Cc2ccncc2)C(=O)c2cccnc2)CCN(Cc2ccccc2)CC1`, the inhibition of growth at 12.5 µg/mL was 64%.
For `C=CCNC(=O)C1(N(Cc2ccncc2)C(=O)c2cccnc2)CCCc2cc(OC)ccc21` (centres undefined), the inhibition of growth at 12.5 µg/mL was found to be 63%.
Turning to `C=CCNC(=O)C1(N(CC=C)C(=O)c2cccnc2)CCCCC1`, the inhibition of growth at 12.5 µg/mL is 80%.
For the compound `C=CCNC(=O)C(C(C)C)N(CC=C)C(=O)c1cccnc1` (centres undefined), the inhibition of growth at 12.5 µg/mL was 6%.
For the compound `C=CCNC(=O)C1(N(CC(C)(C)C)C(=O)c2cccnc2)CCCCC1`, the inhibition of growth at 12.5 µg/mL amounted to 99%.
Consider `C=CCNC(=O)C1(N(C(=O)c2cccnc2)C(C)c2ccccc2)CCCc2cc(OC)ccc21` (centres undefined), for which the inhibition of growth at 12.5 µg/mL came out at 82%.
`C=CCNC(=O)C(C)(C(C)C)N(CCCN1CCOCC1)C(=O)c1cccnc1` (centres undefined): the inhibition of growth at 12.5 µg/mL worked out at 64%.
For `C=CCNC(=O)C(C)(c1ccccc1)N(CCCN1CCOCC1)C(=O)c1cccnc1` (centres undefined), the inhibition of growth at 12.5 µg/mL came out at 72%.
Under `C=CCNC(=O)C(N(C(=O)c1cccnc1)C1CC1)C(F)(F)F` (centres undefined) stands 74%; under `C=CCNC(=O)C(CCCC)N(C(=O)c1cccnc1)C1CC1` (centres undefined), 96%; under `C=CCNC(=O)C(C=C)(CC)N(C(=O)c1cccnc1)C(C)c1ccccc1` (centres undefined), 73%.
Then `C=CCNC(=O)C(CCCC)N(C(=O)c1cccnc1)C1CCCCC1` (centres undefined), with 100%; and `C=CCNC(=O)C(C)(c1ccccc1)N(CC=C)C(=O)c1cccnc1` (centres undefined), with 69%.
Consider `C=CCNC(=O)C(C(C)C)N(C(=O)c1cccnc1)C1CCCCC1` (centres undefined), for which the inhibition of growth at 12.5 µg/mL came out at 62%.
As to `C=CCNC(=O)C1(N(CC=C)C(=O)c2cccnc2)CCN(Cc2ccccc2)CC1`, the inhibition of growth at 12.5 µg/mL was found to be 94%.
Then `C=CCNC(=O)C(C)(c1ccccc1)N(Cc1ccncc1)C(=O)c1cccnc1` (centres undefined), with 68%; and `C=CCNC(=O)C(CCCCC)N(CCCn1ccnc1)C(=O)c1cccnc1` (centres undefined), with 82%.
As to `C=CCNC(=O)C(C)(c1ccccc1)N(CC(C)(C)C)C(=O)c1cccnc1` (centres undefined), the inhibition of growth at 12.5 µg/mL was found to be 67%.
On to `C=CCNC(=O)C(C)(C(C)C)N(CCCn1ccnc1)C(=O)c1cccnc1` (centres undefined), for which the inhibition of growth at 12.5 µg/mL was 54%.
Regarding `C=CCNC(=O)C(C)(C)N(CCCN1CCOCC1)C(=O)c1cccnc1`, the inhibition of growth at 12.5 µg/mL was determined as 70%.
Then `C=CCNC(=O)C(N(CC=C)C(=O)c1cccnc1)C(F)(F)F` (centres undefined), with 6%; and `C=CCNC(=O)C(C)(C(C)C)N(CC=C)C(=O)c1cccnc1` (centres undefined), with 69%.
With `C=CCNC(=O)C(CCCCC)N(CC=C)C(=O)c1cccnc1` (centres undefined), the inhibition of growth at 12.5 µg/mL came out at 11%.
In the case of `C=CCNC(=O)C1(N(CC(C)(C)C)C(=O)c2cccnc2)CCN(Cc2ccccc2)CC1`, the inhibition of growth at 12.5 µg/mL came out at 28%.
As to `C=CCNC(=O)C(C)(C)N(C(=O)c1cccnc1)C1CCCCC1`, the inhibition of growth at 12.5 µg/mL stood at 92%.
In the case of `C=CCNC(=O)C(C=C)(CC)N(C(=O)c1cccnc1)C1CCCCC1` (centres undefined), the inhibition of growth at 12.5 µg/mL worked out at 84%.
For the compound `C=CCNC(=O)C(CCCCC)N(C(=O)c1cccnc1)C1CC1` (centres undefined), the inhibition of growth at 12.5 µg/mL was found to be 90%.
`C=CCNC(=O)C1(N(C(=O)c2cccnc2)C2CCCCC2)CCCCC1`: the inhibition of growth at 12.5 µg/mL was found to be 76%.
Then `C=CCNC(=O)C(C)(C(C)C)N(C(=O)c1cccnc1)C(C)c1ccccc1` (centres undefined), with 83%; and `C=CCNC(=O)C1(N(C(=O)c2cccnc2)C2CC2)CCN(Cc2ccccc2)CC1`, with 43%.
Regarding `C=CCNC(=O)C(N(CCCN1CCOCC1)C(=O)c1cccnc1)C(F)(F)F` (centres undefined), the inhibition of growth at 12.5 µg/mL was 72%.
For `C=CCNC(=O)C(N(CCCn1ccnc1)C(=O)c1cccnc1)C(Cl)(Cl)Cl` (centres undefined), the inhibition of growth at 12.5 µg/mL was found to be 61%.
For `C=CCNC(=O)C(N(CC(C)(C)C)C(=O)c1cccnc1)C(F)(F)F` (centres undefined), the inhibition of growth at 12.5 µg/mL was 77%.
Under `C=CCNC(=O)C(C=C)(CC)N(CCCN1CCOCC1)C(=O)c1cccnc1` (centres undefined) stands 31%.
